Bounds are passed on as bounds.

For one assay, the target named is T1, Acetylcholinesterase (AChE) (Rattus norvegicus, UniProt P37136).
T1 construct: The brain was removed and homogenised; from tissue; host or cells: rat brain (male Sprague Dawley), Triton X100 detergent supernatant of the EDTA-buffer pellet
T1 sequence (P37136 32-614): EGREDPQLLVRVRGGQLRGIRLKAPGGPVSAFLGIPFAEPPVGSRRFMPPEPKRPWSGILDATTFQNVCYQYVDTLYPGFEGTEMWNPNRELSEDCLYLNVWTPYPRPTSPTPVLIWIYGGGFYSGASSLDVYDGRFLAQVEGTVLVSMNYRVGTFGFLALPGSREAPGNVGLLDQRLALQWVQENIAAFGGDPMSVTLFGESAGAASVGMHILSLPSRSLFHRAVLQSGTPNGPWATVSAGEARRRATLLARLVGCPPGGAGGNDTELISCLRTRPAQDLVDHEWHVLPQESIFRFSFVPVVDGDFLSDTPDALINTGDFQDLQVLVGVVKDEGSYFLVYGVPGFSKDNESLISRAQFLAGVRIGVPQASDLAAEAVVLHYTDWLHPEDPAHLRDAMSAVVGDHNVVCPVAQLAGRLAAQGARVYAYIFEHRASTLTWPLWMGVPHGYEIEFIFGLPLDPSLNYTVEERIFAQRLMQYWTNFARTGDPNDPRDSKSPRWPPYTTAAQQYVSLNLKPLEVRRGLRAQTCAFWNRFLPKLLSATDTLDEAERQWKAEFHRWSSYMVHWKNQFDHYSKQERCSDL
Briefly: biochemical. It counts as biochemical, Male Rats (Sprague Dawley), brain.
Conditions: not given
As to the method: (i) Enzyme Source for AChE
5 Male Rats (Sprague Dawley) weighing approx 250 g were killed by CO2 overdose and cervical dislocation.
The brain was removed and homogenised (9 strokes at 840 rpm with 4 volumes of phosphate buffer pH 7.4+10 mM (EDTA) and centrifuged at 27,000 g for 30 minutes.
The supernatant was discarded and the pellet resuspended in phosphate buffer with 10 mM EDTA+1- Triton X100 (2 ml/g wet weight). The crude homogenate was centrifuged at 27,000 g for 30-40 minutes.
The pellet was discarded and the supernatant was dispensed into 0.5 ml aliquots and stored at -20° C. until required.
Phosphate Buffer (0.1M. pH 7.4)
Made up to 500 ml with distilled H2 O, pH 7.4.
0.5 ml aliquots of brain (enzyme solution) as prepared above were thawed out. 2 ml of phosphate buffer was added to each aliquot. 2 ml of the enzyme solution was incubated with 2 ml PDS for 60 minutes at 0° C. The composition of blank, control and test solutions are given below:
0.9 ml phosphate buffer (0.1 M, pH 7.4)
0.85 ml phosphate buffer (0.1M, pH 7.4)
0.05 ml acetylthiocholine (5.2 mM)
(§1) 0.8 ml phosphate buffer (0.1M, pH 7.4)
0.05 ml Acetylthiocholine 5.2 mM
Change in absorbance was measured at 30 second intervals for 3 minutes at […]. The control was taken as 100%. Inhibitor was calculated as a percentage of the control. A graph of Log of inhibitor conc. versus % control was plotted and IC5. values calculated by interpolation.
Take `Nc1c2c(nc3cc(F)c(F)cc13)CCC2` [Compound 8, 9-amino-6,7-difluoro-2,3-dihydro-1H -cyclopenta [1,2-b] quinoline]: the “AChE TACRINE RATIO” value is given as 2.229.
On to `Nc1c2c(nc3cc(F)cc(F)c13)CCC2` [Compound 9, 9-Amino-6,8-difluoro-2.3-dihydro-1H -cyclopenta[1,2-b] quinoline], for which the “AChE TACRINE RATIO” value is reported as 0.650.
The same measure, in the same setting: with `Nc1c2c(nc3ccc(F)c(F)c13)CCC2` [Compound 10, 9-Amino-7,8-difluoro-2,3-dihydro-1-H-cyclopenta-[1,2-b] quinoline] the figure was 0.190.
Still for that read-out and setting: in the case of `Nc1c2c(nc3cc(Cl)ccc13)CCC2` [Compound 17, 9-amino-6-chloro-2,3-dihydro-1H-cyclopenta[b] quinoline] it was 8.041; in that of `Nc1c2c(nc3c(F)ccc(F)c13)CCC2` [Compound 31, 9-Amino-5,8-difluoro-2,3-dihydro-1H-cyclopenta[1.2b] quinoline], 0.166; in that of `Nc1c2c(nc3c(F)cc(F)cc13)CCC2` [Compound 32, 9-Amino-5,7-difluoro-2.3dihydro-1H-cyclopenta[1,2b]quinoline], 0.144.
On the same count and under the same terms, with `Nc1c2c(nc3ccccc13)Cc1ccccc1CC2` [Compound 33, 13-amino 1,2-dihydro [1H] benz [7] annuleno [2,3-b] quinoline] the figure was 0.002; with `Nc1c2c(nc3ccc(F)cc13)-c1ccccc1C2` [Compound 34, 6-Amino-8-Fluoro-4,5-benzo-[5H]-cyclopenta-[1,2-b]-quinoline], 0.030.
For `COc1ccc2nc3c(c(N)c2c1)Cc1ccccc1-3` [Compound 36, 6-Amino-8-methoxy-4,5-benzo-[5H]-cyclopenta-[1,2-b]-quinoline], the “AChE TACRINE RATIO” value was determined as 0.002.

Still in this assay, the particulars now being: Table 1; form BASE; ±SEM, n = 5; read-out: IC50 AChE.
Regarding `Nc1c2c(nc3ccccc13)CCCc1ccccc1-2` [Compound 7, 13-Amino 6.7 dihydro[1H] benz [7] annuleno [4,5-b]quinoline], the IC50 stood at 38.2 µM.

The same assay, now with this note: Table 2; read-out: AChE IC50.
Turning to `Nc1c2c(nc3cc(F)c(F)cc13)CCC2` [Compound 8, 9-amino-6,7-difluoro-2,3-dihydro-1H -cyclopenta [1,2-b] quinoline], the IC50 worked out at 0.035 µM.
For `Nc1c2c(nc3cc(F)cc(F)c13)CCC2` [Compound 9, 9-Amino-6,8-difluoro-2.3-dihydro-1H -cyclopenta[1,2-b] quinoline], the IC50 amounted to 0.12 µM.
Still for that read-out and setting: in the case of `Nc1c2c(nc3ccc(F)c(F)c13)CCC2` [Compound 10, 9-Amino-7,8-difluoro-2,3-dihydro-1-H-cyclopenta-[1,2-b] quinoline] it was 0.41 µM.
On the same count and under the same terms, with `Nc1c2c(nc3cc(Cl)ccc13)CCC2` [Compound 17, 9-amino-6-chloro-2,3-dihydro-1H-cyclopenta[b] quinoline] the figure was 0.01 µM; with `Nc1c2c(nc3c(F)ccc(F)c13)CCC2` [Compound 31, 9-Amino-5,8-difluoro-2,3-dihydro-1H-cyclopenta[1.2b] quinoline], 0.47 µM; with `Nc1c2c(nc3c(F)cc(F)cc13)CCC2` [Compound 32, 9-Amino-5,7-difluoro-2.3dihydro-1H-cyclopenta[1,2b]quinoline], 0.54 µM.
Still for that read-out and setting: in the case of `Nc1c2c(nc3ccccc13)Cc1ccccc1CC2` [Compound 33, 13-amino 1,2-dihydro [1H] benz [7] annuleno [2,3-b] quinoline] it was 36 µM; in that of `Nc1c2c(nc3ccc(F)cc13)-c1ccccc1C2` [Compound 34, 6-Amino-8-Fluoro-4,5-benzo-[5H]-cyclopenta-[1,2-b]-quinoline], 2.9 µM; in that of `Nc1c2c(nc3ccc(Cl)cc13)-c1ccccc1C2` [Compound 35, 6-Amino-8-chloro-4,5-benzo-[5H]-cyclopenta-[1,2-b]-quinoline], greater than 100 µM.
For `COc1ccc2nc3c(c(N)c2c1)Cc1ccccc1-3` [Compound 36, 6-Amino-8-methoxy-4,5-benzo-[5H]-cyclopenta-[1,2-b]-quinoline], the IC50 is 47 µM.

The next assay deals with T2, Butyrylcholinesterase (BChE) (Equus caballus, UniProt P81908).
T2 construct: purchased Sigma c-7512
T2 sequence (P81908 whole entry): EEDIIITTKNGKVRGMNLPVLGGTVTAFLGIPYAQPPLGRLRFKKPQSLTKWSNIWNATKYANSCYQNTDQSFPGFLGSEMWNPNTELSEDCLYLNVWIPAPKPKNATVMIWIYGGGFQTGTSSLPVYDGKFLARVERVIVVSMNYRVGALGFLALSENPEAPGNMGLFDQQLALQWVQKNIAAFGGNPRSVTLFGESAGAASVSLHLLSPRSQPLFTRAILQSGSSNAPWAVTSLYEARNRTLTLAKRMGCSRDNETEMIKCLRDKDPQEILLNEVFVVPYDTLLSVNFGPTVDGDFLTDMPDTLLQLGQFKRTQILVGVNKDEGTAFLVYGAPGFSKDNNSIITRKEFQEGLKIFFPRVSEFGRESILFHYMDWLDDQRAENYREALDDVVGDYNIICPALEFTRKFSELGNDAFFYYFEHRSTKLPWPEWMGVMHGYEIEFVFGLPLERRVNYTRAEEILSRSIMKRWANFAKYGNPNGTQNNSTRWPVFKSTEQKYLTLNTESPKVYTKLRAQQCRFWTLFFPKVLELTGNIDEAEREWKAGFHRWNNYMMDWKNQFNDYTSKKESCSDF
In words: biochemical.
Conditions: not given
On the procedure:
The following components were utilised:
Phosphate Buffer (0.1M, pH 7.4)
Made up to 500 ml with distilled H2 O, pH 7.4
1 ml of enzyme solution (i), was incubated with 2 ml PDS for 60 minutes at 0° C.
Components of the assay blank, controls and test solutions are provided below:
0.9 ml phosphate buffer (0.1M, pH 7.4)
0.85 ml phosphate buffer (0.1 M, pH 7.4)
0.05 ml Acetylthiocholine (5.2 mM)
as §1
Control was taken as 100%. Inhibitor was calculated as a percentage of control. A graph of Log of inhibitor conc. versus % control was plotted and IC50 values calculated by interpolation.
Consider `Nc1c2c(nc3cc(F)c(F)cc13)CCC2` [Compound 8, 9-amino-6,7-difluoro-2,3-dihydro-1H -cyclopenta [1,2-b] quinoline], for which the “BChE TACRINE RATIO” value is 0.003.
Same read-out and setting: with `Nc1c2c(nc3cc(F)cc(F)c13)CCC2` [Compound 9, 9-Amino-6,8-difluoro-2.3-dihydro-1H -cyclopenta[1,2-b] quinoline] the figure was 0.018; with `Nc1c2c(nc3ccc(F)c(F)c13)CCC2` [Compound 10, 9-Amino-7,8-difluoro-2,3-dihydro-1-H-cyclopenta-[1,2-b] quinoline], 0.002.
The same measure, in the same setting: with `Nc1c2c(nc3cc(Cl)ccc13)CCC2` [Compound 17, 9-amino-6-chloro-2,3-dihydro-1H-cyclopenta[b] quinoline] the figure was 0.19.
On the same count and under the same terms, with `Nc1c2c(nc3c(F)ccc(F)c13)CCC2` [Compound 31, 9-Amino-5,8-difluoro-2,3-dihydro-1H-cyclopenta[1.2b] quinoline] the figure was 0.005.
With `Nc1c2c(nc3c(F)cc(F)cc13)CCC2` [Compound 32, 9-Amino-5,7-difluoro-2.3dihydro-1H-cyclopenta[1,2b]quinoline], the “BChE TACRINE RATIO” value was 0.003.

The same assay, now with this note: Table 2; read-out: BChE IC50.
`Nc1c2c(nc3cc(F)c(F)cc13)CCC2` [Compound 8, 9-amino-6,7-difluoro-2,3-dihydro-1H -cyclopenta [1,2-b] quinoline]: the IC50 stood at 10 µM.
For the compound `Nc1c2c(nc3cc(F)cc(F)c13)CCC2` [Compound 9, 9-Amino-6,8-difluoro-2.3-dihydro-1H -cyclopenta[1,2-b] quinoline], the IC50 was found to be 1.4 µM.
Same read-out and setting: with `Nc1c2c(nc3ccc(F)c(F)c13)CCC2` [Compound 10, 9-Amino-7,8-difluoro-2,3-dihydro-1-H-cyclopenta-[1,2-b] quinoline] the figure was 15 µM.
On the same count and under the same terms, with `Nc1c2c(nc3cc(Cl)ccc13)CCC2` [Compound 17, 9-amino-6-chloro-2,3-dihydro-1H-cyclopenta[b] quinoline] the figure was 0.13 µM; with `Nc1c2c(nc3c(F)ccc(F)c13)CCC2` [Compound 31, 9-Amino-5,8-difluoro-2,3-dihydro-1H-cyclopenta[1.2b] quinoline], 4.8 µM.
For `Nc1c2c(nc3c(F)cc(F)cc13)CCC2` [Compound 32, 9-Amino-5,7-difluoro-2.3dihydro-1H-cyclopenta[1,2b]quinoline], the IC50 was found to be 8.8 µM.

The next assay has as its system 5-HT (serotonin) uptake.
Test: not given
The format is biochemical, rat (Sprague Dawley).
Conditions: not given
On the procedure: One male rat (Sprague Dawley) weighing approx. 200-250 g was sacrificed by cervical dislocation. The brain was dissected out and the cerebellum discarded. The brain was then weighed and 10 ml ice cold sucrose (0.32M) added per gram tissue. […] The pellet was discarded and the supernatant retained (crude synaptosomal preparation).
All tubes were set up in triplicate. […] 100 μl of the prepared synaptosomal preparation was added to each tube and incubated for 5 minutes in a shaking water bath at 37° C. Any reaction was stopped by plunging the tubes into an ice water bath. ^3 H NA (10^-7 M) or ^3 H 5-HT ([…]) was added to each tube and incubated for 5 minutes in a shaking water bath at 37° C. Any reaction was stopped by plunging the tubes into an ice-water bath. Accumulated monoamines were collected using a Brandell Cell Harvester under mild vacuum. Filters were rinsed (2×) using 4 ml of ice-cold 0.9% saline. Scintillation fluid was added (4 ml/tube). Radioactivity was measured on a scintillation counter.
Non-specific values were subtracted from total values. The control was taken as 100%. Drug effects were calculated as a percentage of control inhibitor value. A graph of log of drug concentration versus % control was plotted and IC50 values were calculated by interpolation.
As to `Nc1c2c(nc3cc(F)c(F)cc13)CCC2` [Compound 8, 9-amino-6,7-difluoro-2,3-dihydro-1H -cyclopenta [1,2-b] quinoline], the “5-HT UPTAKE INHIBITION TACRINE RATIO” value was 3.800.
The same measure, in the same setting: with `Nc1c2c(nc3cc(F)cc(F)c13)CCC2` [Compound 9, 9-Amino-6,8-difluoro-2.3-dihydro-1H -cyclopenta[1,2-b] quinoline] the figure was 0.146.
`Nc1c2c(nc3ccc(F)c(F)c13)CCC2` [Compound 10, 9-Amino-7,8-difluoro-2,3-dihydro-1-H-cyclopenta-[1,2-b] quinoline]: the “5-HT UPTAKE INHIBITION TACRINE RATIO” value was found to be 0.029.
Consider `Nc1c2c(nc3cc(Cl)ccc13)CCC2` [Compound 17, 9-amino-6-chloro-2,3-dihydro-1H-cyclopenta[b] quinoline], for which the “5-HT UPTAKE INHIBITION TACRINE RATIO” value is reported as 5.067.
`Nc1c2c(nc3ccccc13)Cc1ccccc1CC2` [Compound 33, 13-amino 1,2-dihydro [1H] benz [7] annuleno [2,3-b] quinoline]: the “5-HT UPTAKE INHIBITION TACRINE RATIO” value came out at 0.400.
For `Nc1c2c(nc3ccc(F)cc13)-c1ccccc1C2` [Compound 34, 6-Amino-8-Fluoro-4,5-benzo-[5H]-cyclopenta-[1,2-b]-quinoline], the “5-HT UPTAKE INHIBITION TACRINE RATIO” value was 0.400.
On the same count and under the same terms, in the case of `Nc1c2c(nc3ccc(Cl)cc13)-c1ccccc1C2` [Compound 35, 6-Amino-8-chloro-4,5-benzo-[5H]-cyclopenta-[1,2-b]-quinoline] it was 0.070; in that of `COc1ccc2nc3c(c(N)c2c1)Cc1ccccc1-3` [Compound 36, 6-Amino-8-methoxy-4,5-benzo-[5H]-cyclopenta-[1,2-b]-quinoline], 0.300.

The assay is the same for the next values; noted with them: Table 1; form BASE; n = 5; read-out: IC50 5HT UPTAKE.
As to `Nc1c2c(nc3ccccc13)CCCc1ccccc1-2` [Compound 7, 13-Amino 6.7 dihydro[1H] benz [7] annuleno [4,5-b]quinoline], the IC50 worked out at 0.02 µM.

Still in this assay, the particulars now being: Table 3; read-out: 5-HT UPTAKE INHIBITION
For `Nc1c2c(nc3cc(F)c(F)cc13)CCC2` [Compound 8, 9-amino-6,7-difluoro-2,3-dihydro-1H -cyclopenta [1,2-b] quinoline], the IC50 amounted to 2 µM.
For the compound `Nc1c2c(nc3cc(F)cc(F)c13)CCC2` [Compound 9, 9-Amino-6,8-difluoro-2.3-dihydro-1H -cyclopenta[1,2-b] quinoline], the IC50 turned out to be 52 µM.
Still for that read-out and setting: in the case of `Nc1c2c(nc3ccc(F)c(F)c13)CCC2` [Compound 10, 9-Amino-7,8-difluoro-2,3-dihydro-1-H-cyclopenta-[1,2-b] quinoline] it was 260 µM; in that of `Nc1c2c(nc3cc(Cl)ccc13)CCC2` [Compound 17, 9-amino-6-chloro-2,3-dihydro-1H-cyclopenta[b] quinoline], 1.5 µM.
Take `Nc1c2c(nc3ccccc13)Cc1ccccc1CC2` [Compound 33, 13-amino 1,2-dihydro [1H] benz [7] annuleno [2,3-b] quinoline]: the IC50 was determined as 18 µM.
Same read-out and setting: with `Nc1c2c(nc3ccc(F)cc13)-c1ccccc1C2` [Compound 34, 6-Amino-8-Fluoro-4,5-benzo-[5H]-cyclopenta-[1,2-b]-quinoline] the figure was 18 µM; with `Nc1c2c(nc3ccc(Cl)cc13)-c1ccccc1C2` [Compound 35, 6-Amino-8-chloro-4,5-benzo-[5H]-cyclopenta-[1,2-b]-quinoline], 114 µM; with `COc1ccc2nc3c(c(N)c2c1)Cc1ccccc1-3` [Compound 36, 6-Amino-8-methoxy-4,5-benzo-[5H]-cyclopenta-[1,2-b]-quinoline], 29 µM.

The values are drawn from patent US6130228A, “Polycyclic compounds” (priority 1995, dated 2000).
